Kd data for one compound are collected here from paper PMC6022639, “A missense allele of KARRIKIN-INSENSITIVE2 impairs ligand-binding and downstream signaling in Arabidopsis thaliana” (Journal of Experimental Botany, 2018).

pKd: −log10 of the molar value.

Test [1] addresses T1, KARRIKIN INSENSITIVE2 (KAI2) (Arabidopsis thaliana, UniProt Q9SZU7).
T1 construct: full-length, recombinant from E. coli, His tag removed
T1 sequence (Q9SZU7 1-270): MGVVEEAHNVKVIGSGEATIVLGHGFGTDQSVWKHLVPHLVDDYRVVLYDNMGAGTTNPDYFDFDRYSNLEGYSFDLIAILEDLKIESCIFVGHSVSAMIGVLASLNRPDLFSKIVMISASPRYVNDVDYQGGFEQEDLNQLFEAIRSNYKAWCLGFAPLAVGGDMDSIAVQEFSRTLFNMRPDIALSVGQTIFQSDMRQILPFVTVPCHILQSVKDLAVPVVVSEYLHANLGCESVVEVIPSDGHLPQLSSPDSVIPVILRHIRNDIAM
In words: ITC ([…] °C); supported by CPM thermal shift. In kind it is binding.

The next test concerns the target T2, KAI2^ply2 (KAI2^A219V) (Arabidopsis thaliana, UniProt Q9SZU7, A219V).
T2 construct: full-length, recombinant from E. coli, His tag removed
In words: ITC ([…] °C); strongly impaired binding, only marginal change in CPM assay.

T2 sequence (Q9SZU7 whole entry A219V): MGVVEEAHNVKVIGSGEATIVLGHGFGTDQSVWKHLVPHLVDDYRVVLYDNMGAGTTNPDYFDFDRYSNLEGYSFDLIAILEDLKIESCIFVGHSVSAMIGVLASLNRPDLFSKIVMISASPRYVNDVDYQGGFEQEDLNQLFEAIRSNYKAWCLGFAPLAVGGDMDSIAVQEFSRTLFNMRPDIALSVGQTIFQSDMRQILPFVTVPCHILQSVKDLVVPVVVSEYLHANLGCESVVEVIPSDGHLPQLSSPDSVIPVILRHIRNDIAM

Broadly, the pKd is the negative decadic logarithm of the Kd, by convention in mol/L. Take `Cc1c2ccocc-2oc1=O` [KAR1, 3-methyl-2H-furo[2,3-c]pyran-2-one]: the figures for the negative logarithm of the Kd (pKd) (in test [1]; at KAI2^ply2 (KAI2^A219V)) were 3.83 and 2.54, respectively.
